ChEMBL document CHEMBL3400097, “Effect of arginine methylation on the RNA recognition and cellular uptake of Tat-derived peptides” (Bioorg Med Chem, 2015)

Test system: Jurkat
Test: Cellular uptake in human Jurkat cells at 7 to 120 uM after 15 mins by 6-carboxyfluorescein staining-based flow cytometry
Type: ADME, cell-based
Conditions: 0.25 h; call rule not given here

| Compound | Drug uptake |
| --- | --- |
| N=C(N)NCCC[C@H](NC(=O)[C@H](CCCNC(=N)N)NC(=O)[C@H](CCCNC(=N)N)NC(=O)[C@H](CCC(N)=O)NC(=O)[C@H](CCCNC(=N)N)NC(=O)[C@H](CCCNC(=N)N)NC(=O)[C@H](CCCCN)NC(=O)[C@H](CCCCN)NC(=O)[C@H](CCCNC(=N)N)NC(=O)CNC(=O)[C@H](Cc1ccc(O)cc1)NC(=O)CCNC(=O)c1ccc2c(c1)C1(OC2=O)c2ccc(O)cc2Oc2cc(O)ccc21)C(N)=O | Active |
| CNC(=N)NCCC[C@H](NC(=O)CNC(=O)[C@H](Cc1ccc(O)cc1)NC(=O)CCNC(=O)c1ccc2c(c1)C1(OC2=O)c2ccc(O)cc2Oc2cc(O)ccc21)C(=O)N[C@@H](CCCCN)C(=O)N[C@@H](CCCCN)C(=O)N[C@@H](CCCNC(=N)N)C(=O)N[C@@H](CCCNC(=N)N)C(=O)N[C@@H](CCC(N)=O)C(=O)N[C@@H](CCCNC(=N)N)C(=O)N[C@@H](CCCNC(=N)N)C(=O)N[C@@H](CCCNC(=N)N)C(N)=O | Active |
| CNC(=N)NCCC[C@H](NC(=O)[C@H](CCCCN)NC(=O)[C@H](CCCCN)NC(=O)[C@H](CCCNC(=N)N)NC(=O)CNC(=O)[C@H](Cc1ccc(O)cc1)NC(=O)CCNC(=O)c1ccc2c(c1)C1(OC2=O)c2ccc(O)cc2Oc2cc(O)ccc21)C(=O)N[C@@H](CCCNC(=N)N)C(=O)N[C@@H](CCC(N)=O)C(=O)N[C@@H](CCCNC(=N)N)C(=O)N[C@@H](CCCNC(=N)N)C(=O)N[C@@H](CCCNC(=N)N)C(N)=O | Active |
| CNC(=N)NCCC[C@H](NC(=O)[C@H](CCCNC(=N)N)NC(=O)[C@H](CCCCN)NC(=O)[C@H](CCCCN)NC(=O)[C@H](CCCNC(=N)N)NC(=O)CNC(=O)[C@H](Cc1ccc(O)cc1)NC(=O)CCNC(=O)c1ccc2c(c1)C1(OC2=O)c2ccc(O)cc2Oc2cc(O)ccc21)C(=O)N[C@@H](CCC(N)=O)C(=O)N[C@@H](CCCNC(=N)N)C(=O)N[C@@H](CCCNC(=N)N)C(=O)N[C@@H](CCCNC(=N)N)C(N)=O | Active |
| CNC(=N)NCCC[C@H](NC(=O)[C@H](CCC(N)=O)NC(=O)[C@H](CCCNC(=N)N)NC(=O)[C@H](CCCNC(=N)N)NC(=O)[C@H](CCCCN)NC(=O)[C@H](CCCCN)NC(=O)[C@H](CCCNC(=N)N)NC(=O)CNC(=O)[C@H](Cc1ccc(O)cc1)NC(=O)CCNC(=O)c1ccc2c(c1)C1(OC2=O)c2ccc(O)cc2Oc2cc(O)ccc21)C(=O)N[C@@H](CCCNC(=N)N)C(=O)N[C@@H](CCCNC(=N)N)C(N)=O | Active |
| CNC(=N)NCCC[C@H](NC(=O)[C@H](CCCNC(=N)N)NC(=O)[C@H](CCC(N)=O)NC(=O)[C@H](CCCNC(=N)N)NC(=O)[C@H](CCCNC(=N)N)NC(=O)[C@H](CCCCN)NC(=O)[C@H](CCCCN)NC(=O)[C@H](CCCNC(=N)N)NC(=O)CNC(=O)[C@H](Cc1ccc(O)cc1)NC(=O)CCNC(=O)c1ccc2c(c1)C1(OC2=O)c2ccc(O)cc2Oc2cc(O)ccc21)C(=O)N[C@@H](CCCNC(=N)N)C(N)=O | Active |
| CNC(=N)NCCC[C@H](NC(=O)[C@H](CCCNC(=N)N)NC(=O)[C@H](CCCNC(=N)N)NC(=O)[C@H](CCC(N)=O)NC(=O)[C@H](CCCNC(=N)N)NC(=O)[C@H](CCCNC(=N)N)NC(=O)[C@H](CCCCN)NC(=O)[C@H](CCCCN)NC(=O)[C@H](CCCNC(=N)N)NC(=O)CNC(=O)[C@H](Cc1ccc(O)cc1)NC(=O)CCNC(=O)c1ccc2c(c1)C1(OC2=O)c2ccc(O)cc2Oc2cc(O)ccc21)C(N)=O | Active |
| CN(C)C(=N)NCCC[C@H](NC(=O)CNC(=O)[C@H](Cc1ccc(O)cc1)NC(=O)CCNC(=O)c1ccc2c(c1)C1(OC2=O)c2ccc(O)cc2Oc2cc(O)ccc21)C(=O)N[C@@H](CCCCN)C(=O)N[C@@H](CCCCN)C(=O)N[C@@H](CCCNC(=N)N)C(=O)N[C@@H](CCCNC(=N)N)C(=O)N[C@@H](CCC(N)=O)C(=O)N[C@@H](CCCNC(=N)N)C(=O)N[C@@H](CCCNC(=N)N)C(=O)N[C@@H](CCCNC(=N)N)C(N)=O | Active |
| CN(C)C(=N)NCCC[C@H](NC(=O)[C@H](CCCCN)NC(=O)[C@H](CCCCN)NC(=O)[C@H](CCCNC(=N)N)NC(=O)CNC(=O)[C@H](Cc1ccc(O)cc1)NC(=O)CCNC(=O)c1ccc2c(c1)C1(OC2=O)c2ccc(O)cc2Oc2cc(O)ccc21)C(=O)N[C@@H](CCCNC(=N)N)C(=O)N[C@@H](CCC(N)=O)C(=O)N[C@@H](CCCNC(=N)N)C(=O)N[C@@H](CCCNC(=N)N)C(=O)N[C@@H](CCCNC(=N)N)C(N)=O | Active |
| CN(C)C(=N)NCCC[C@H](NC(=O)[C@H](CCCNC(=N)N)NC(=O)[C@H](CCCCN)NC(=O)[C@H](CCCCN)NC(=O)[C@H](CCCNC(=N)N)NC(=O)CNC(=O)[C@H](Cc1ccc(O)cc1)NC(=O)CCNC(=O)c1ccc2c(c1)C1(OC2=O)c2ccc(O)cc2Oc2cc(O)ccc21)C(=O)N[C@@H](CCC(N)=O)C(=O)N[C@@H](CCCNC(=N)N)C(=O)N[C@@H](CCCNC(=N)N)C(=O)N[C@@H](CCCNC(=N)N)C(N)=O | Active |
| CN(C)C(=N)NCCC[C@H](NC(=O)[C@H](CCC(N)=O)NC(=O)[C@H](CCCNC(=N)N)NC(=O)[C@H](CCCNC(=N)N)NC(=O)[C@H](CCCCN)NC(=O)[C@H](CCCCN)NC(=O)[C@H](CCCNC(=N)N)NC(=O)CNC(=O)[C@H](Cc1ccc(O)cc1)NC(=O)CCNC(=O)c1ccc2c(c1)C1(OC2=O)c2ccc(O)cc2Oc2cc(O)ccc21)C(=O)N[C@@H](CCCNC(=N)N)C(=O)N[C@@H](CCCNC(=N)N)C(N)=O | Active |
| CN(C)C(=N)NCCC[C@H](NC(=O)[C@H](CCCNC(=N)N)NC(=O)[C@H](CCC(N)=O)NC(=O)[C@H](CCCNC(=N)N)NC(=O)[C@H](CCCNC(=N)N)NC(=O)[C@H](CCCCN)NC(=O)[C@H](CCCCN)NC(=O)[C@H](CCCNC(=N)N)NC(=O)CNC(=O)[C@H](Cc1ccc(O)cc1)NC(=O)CCNC(=O)c1ccc2c(c1)C1(OC2=O)c2ccc(O)cc2Oc2cc(O)ccc21)C(=O)N[C@@H](CCCNC(=N)N)C(N)=O | Active |
| CN(C)C(=N)NCCC[C@H](NC(=O)[C@H](CCCNC(=N)N)NC(=O)[C@H](CCCNC(=N)N)NC(=O)[C@H](CCC(N)=O)NC(=O)[C@H](CCCNC(=N)N)NC(=O)[C@H](CCCNC(=N)N)NC(=O)[C@H](CCCCN)NC(=O)[C@H](CCCCN)NC(=O)[C@H](CCCNC(=N)N)NC(=O)CNC(=O)[C@H](Cc1ccc(O)cc1)NC(=O)CCNC(=O)c1ccc2c(c1)C1(OC2=O)c2ccc(O)cc2Oc2cc(O)ccc21)C(N)=O | Active |
| C/N=C(\NC)NCCC[C@H](NC(=O)CNC(=O)[C@H](Cc1ccc(O)cc1)NC(=O)CCNC(=O)c1ccc2c(c1)C1(OC2=O)c2ccc(O)cc2Oc2cc(O)ccc21)C(=O)N[C@@H](CCCCN)C(=O)N[C@@H](CCCCN)C(=O)N[C@@H](CCCNC(=N)N)C(=O)N[C@@H](CCCNC(=N)N)C(=O)N[C@@H](CCC(N)=O)C(=O)N[C@@H](CCCNC(=N)N)C(=O)N[C@@H](CCCNC(=N)N)C(=O)N[C@@H](CCCNC(=N)N)C(N)=O | Active |
| C/N=C(\NC)NCCC[C@H](NC(=O)[C@H](CCCCN)NC(=O)[C@H](CCCCN)NC(=O)[C@H](CCCNC(=N)N)NC(=O)CNC(=O)[C@H](Cc1ccc(O)cc1)NC(=O)CCNC(=O)c1ccc2c(c1)C1(OC2=O)c2ccc(O)cc2Oc2cc(O)ccc21)C(=O)N[C@@H](CCCNC(=N)N)C(=O)N[C@@H](CCC(N)=O)C(=O)N[C@@H](CCCNC(=N)N)C(=O)N[C@@H](CCCNC(=N)N)C(=O)N[C@@H](CCCNC(=N)N)C(N)=O | Active |
| C/N=C(\NC)NCCC[C@H](NC(=O)[C@H](CCCNC(=N)N)NC(=O)[C@H](CCCCN)NC(=O)[C@H](CCCCN)NC(=O)[C@H](CCCNC(=N)N)NC(=O)CNC(=O)[C@H](Cc1ccc(O)cc1)NC(=O)CCNC(=O)c1ccc2c(c1)C1(OC2=O)c2ccc(O)cc2Oc2cc(O)ccc21)C(=O)N[C@@H](CCC(N)=O)C(=O)N[C@@H](CCCNC(=N)N)C(=O)N[C@@H](CCCNC(=N)N)C(=O)N[C@@H](CCCNC(=N)N)C(N)=O | Active |
| C/N=C(\NC)NCCC[C@H](NC(=O)[C@H](CCC(N)=O)NC(=O)[C@H](CCCNC(=N)N)NC(=O)[C@H](CCCNC(=N)N)NC(=O)[C@H](CCCCN)NC(=O)[C@H](CCCCN)NC(=O)[C@H](CCCNC(=N)N)NC(=O)CNC(=O)[C@H](Cc1ccc(O)cc1)NC(=O)CCNC(=O)c1ccc2c(c1)C1(OC2=O)c2ccc(O)cc2Oc2cc(O)ccc21)C(=O)N[C@@H](CCCNC(=N)N)C(=O)N[C@@H](CCCNC(=N)N)C(N)=O | Active |
| C/N=C(\NC)NCCC[C@H](NC(=O)[C@H](CCCNC(=N)N)NC(=O)[C@H](CCC(N)=O)NC(=O)[C@H](CCCNC(=N)N)NC(=O)[C@H](CCCNC(=N)N)NC(=O)[C@H](CCCCN)NC(=O)[C@H](CCCCN)NC(=O)[C@H](CCCNC(=N)N)NC(=O)CNC(=O)[C@H](Cc1ccc(O)cc1)NC(=O)CCNC(=O)c1ccc2c(c1)C1(OC2=O)c2ccc(O)cc2Oc2cc(O)ccc21)C(=O)N[C@@H](CCCNC(=N)N)C(N)=O | Active |
| C/N=C(\NC)NCCC[C@H](NC(=O)[C@H](CCCNC(=N)N)NC(=O)[C@H](CCCNC(=N)N)NC(=O)[C@H](CCC(N)=O)NC(=O)[C@H](CCCNC(=N)N)NC(=O)[C@H](CCCNC(=N)N)NC(=O)[C@H](CCCCN)NC(=O)[C@H](CCCCN)NC(=O)[C@H](CCCNC(=N)N)NC(=O)CNC(=O)[C@H](Cc1ccc(O)cc1)NC(=O)CCNC(=O)c1ccc2c(c1)C1(OC2=O)c2ccc(O)cc2Oc2cc(O)ccc21)C(N)=O | Active |

Test system: Nucleic Acid
Test: Binding affinity to HIV TAR RNA by electrophoretic mobility shift assay in presence of Escherichia coli tRNA
Type: nucleic-acid assay, Human immunodeficiency virus
Conditions: not given

| Compound | Kd [nM] |
| --- | --- |
| C/N=C(\NC)NCCC[C@H](NC(=O)[C@H](CCCNC(=N)N)NC(=O)[C@H](CCC(N)=O)NC(=O)[C@H](CCCNC(=N)N)NC(=O)[C@H](CCCNC(=N)N)NC(=O)[C@H](CCCCN)NC(=O)[C@H](CCCCN)NC(=O)[C@H](CCCNC(=N)N)NC(=O)CNC(=O)[C@H](Cc1ccc(O)cc1)NC(C)=O)C(=O)N[C@@H](CCCNC(=N)N)C(N)=O | 317 |
| C/N=C(\NC)NCCC[C@H](NC(=O)[C@H](CCCNC(=N)N)NC(=O)[C@H](CCCNC(=N)N)NC(=O)[C@H](CCC(N)=O)NC(=O)[C@H](CCCNC(=N)N)NC(=O)[C@H](CCCNC(=N)N)NC(=O)[C@H](CCCCN)NC(=O)[C@H](CCCCN)NC(=O)[C@H](CCCNC(=N)N)NC(=O)CNC(=O)[C@H](Cc1ccc(O)cc1)NC(C)=O)C(N)=O | 262 |

Test system: Jurkat
Test: Cytotoxicity against human Jurkat cells assessed as cell viability at 120 uM after 4 hrs by WST-1 assay
Type: cell-based
Conditions: not given

| Compound | Activity |
| --- | --- |
| C/N=C(\NC)NCCC[C@H](NC(=O)[C@H](CCCNC(=N)N)NC(=O)[C@H](CCC(N)=O)NC(=O)[C@H](CCCNC(=N)N)NC(=O)[C@H](CCCNC(=N)N)NC(=O)[C@H](CCCCN)NC(=O)[C@H](CCCCN)NC(=O)[C@H](CCCNC(=N)N)NC(=O)CNC(=O)[C@H](Cc1ccc(O)cc1)NC(C)=O)C(=O)N[C@@H](CCCNC(=N)N)C(N)=O | Non-toxic |
| C/N=C(\NC)NCCC[C@H](NC(=O)[C@H](CCCNC(=N)N)NC(=O)[C@H](CCCNC(=N)N)NC(=O)[C@H](CCC(N)=O)NC(=O)[C@H](CCCNC(=N)N)NC(=O)[C@H](CCCNC(=N)N)NC(=O)[C@H](CCCCN)NC(=O)[C@H](CCCCN)NC(=O)[C@H](CCCNC(=N)N)NC(=O)CNC(=O)[C@H](Cc1ccc(O)cc1)NC(C)=O)C(N)=O | Non-toxic |
